Reference: patent publication US20050222146A1, “N-substituted-n-sulfonylaminocyclopropane compounds and pharmaceutical use thereof” (priority 2003, published 2005)

Legend:
aggrecanase-1 = molecular target: T1, aggrecanase-1 (Homo sapiens, UniProt O75173); assay: Aggrecanase-1 inhibitory action, Particle Assay (GAG release from aggrecan-containing polyacrylamide particles); type: biochemical; conditions: 37° C. for 15 hr, read-out: Experimental Example 1 IC50 AG1
T1 sequence (O75173 213-837): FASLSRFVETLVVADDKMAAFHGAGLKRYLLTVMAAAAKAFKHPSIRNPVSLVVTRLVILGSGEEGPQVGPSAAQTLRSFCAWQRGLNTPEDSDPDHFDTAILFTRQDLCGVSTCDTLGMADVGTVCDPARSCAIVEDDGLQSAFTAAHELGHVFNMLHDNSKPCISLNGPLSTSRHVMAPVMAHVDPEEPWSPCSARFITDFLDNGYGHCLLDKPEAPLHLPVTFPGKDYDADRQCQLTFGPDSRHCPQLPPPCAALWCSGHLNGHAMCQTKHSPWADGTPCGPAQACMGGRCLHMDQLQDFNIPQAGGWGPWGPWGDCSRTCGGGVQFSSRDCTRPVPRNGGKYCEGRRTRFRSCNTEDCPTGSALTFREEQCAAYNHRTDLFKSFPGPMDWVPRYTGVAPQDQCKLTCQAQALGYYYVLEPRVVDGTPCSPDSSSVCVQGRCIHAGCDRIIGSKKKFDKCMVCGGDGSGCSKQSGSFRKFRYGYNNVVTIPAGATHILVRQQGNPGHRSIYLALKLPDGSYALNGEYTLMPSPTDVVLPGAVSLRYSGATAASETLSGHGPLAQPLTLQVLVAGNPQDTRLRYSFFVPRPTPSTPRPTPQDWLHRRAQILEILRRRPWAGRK
Procedure: Aggrecanase-1 Inhibitory Action
Particle Assay was used for determination of aggrecanase activity.
(§1) The enzyme and substrate were diluted with Tris-HCl buffer, and test compounds were diluted with dimethyl sulfoxide (DMSO).
Test compounds and the enzyme were added into 96-well plate, and polyacrylamide particles containing aggrecan were added as a substrate and the mixture was incubated at 37° C. for 15 hr.
After incubation; the supernatant was transferred to another plate, and mixed with 1,9-dimethylmethylene blue. The absorbance at 595 nm was measured to quantify the amount of glycosaminoglycan (GAG) released in the reaction supernatant. Whale chondroitin sulfate was used as the standard of GAG. The inhibitory activity of the compound in each well (%) was calculated based on the values of enzyme-free well and inhibitor-free well. The inhibitory activity of the compound was represented as IC50 (μM).

MMP-1 = molecular target: T2, MMP-1 (Homo sapiens, UniProt P03956); assay: MMP-1 inhibitory action, Type I collagen Activity Measurement kit (FITC-labeled collagen type I); type: biochemical; conditions: 37° C. for 3 hr, read-out: Experimental Example 2 IC50 MMP1
T2 sequence (P03956 100-469): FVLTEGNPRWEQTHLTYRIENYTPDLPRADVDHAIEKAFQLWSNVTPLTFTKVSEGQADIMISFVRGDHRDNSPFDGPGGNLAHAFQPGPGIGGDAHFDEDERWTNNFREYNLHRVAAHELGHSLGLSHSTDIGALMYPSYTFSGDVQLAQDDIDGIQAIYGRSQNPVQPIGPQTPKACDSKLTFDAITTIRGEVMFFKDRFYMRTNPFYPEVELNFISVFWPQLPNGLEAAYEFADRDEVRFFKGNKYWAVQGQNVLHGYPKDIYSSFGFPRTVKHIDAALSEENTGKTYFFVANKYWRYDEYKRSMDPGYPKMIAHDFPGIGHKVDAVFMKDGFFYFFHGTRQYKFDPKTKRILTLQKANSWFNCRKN
Procedure: For MMP-1 Assay, Type I collagen Activity Measurement kit (YAGAI YU-72013) modified to a 96-well plate format was used.
The principle of the kit is based on the property of collagen that becomes soluble in ethanol after being cleaved by MMP-1.
as §1
The enzyme and test compounds were added into 96-well plate, and fluorescein isothiocianate (FITC)-labeled collagen type I was added as a substrate and the mixture was incubated at 37° C. for 3 hr.
The reaction was terminated by addition of Tris-HCl buffer containing ethanol. After centrifugation, the supernatant containing denatured substrate was transferred to another 96-well plate. The collagenase activity of MMP-1 was determined by measuring FITC fluorescence intensity (excitation wavelength 485 nm, emission wavelength 530 nm) of each well. The inhibitory activity of the compound in each well (%) was calculated based on the values of enzyme-free well and inhibitor-free well. The inhibitory activity of the compound was represented as IC50 (μM).

Row | SMILES | IC50 (aggrecanase-1) | IC50 (MMP-1)
1 | CC(C)COc1cccc([C@@H]2C[C@@]2(C(=O)O)N(CC(=O)O)S(=O)(=O)c2ccc(-c3ccc(Cl)cc3)cc2)c1 (relative stereo) [Example 1-47, (1R*,2S*)-1-[carboxymethyl-(4′-chloro-biphenyl-4-sulfonyl)-amino]-2-(3-isobutoxy-phenyl)-cyclopropanecarboxylic acid] | < 0.1 µM | ≥ 10 µM
2 | O=C(O)CN([C@]1(C(=O)O)C[C@H]1c1cccc(OC2CCCCC2)c1)S(=O)(=O)c1ccc(-c2ccc(Cl)cc2)cc1 (relative stereo) [Example 1-48, (1R*,2S*)-1-[carboxymethyl-(4′-chloro-biphenyl-4-sulfonyl)-amino]-2-(3-cyclohexyloxy-phenyl)-cyclopropanecarboxylic acid] | < 0.1 µM | ≥ 10 µM
3 | O=C(O)c1cccc(CN([C@]2(C(=O)O)C[C@H]2c2cccc(Oc3ccccc3)c2)S(=O)(=O)c2ccc(-c3ccc(Cl)cc3)cc2)c1 (relative stereo) [Example 1-51, (1R*,2S*)-3-{[[1-carboxy-2-(3-phenoxy-phenyl)-cyclopropyl]-(4′-chloro-biphenyl-4-sulfonyl)-amino]-methyl}-benzoic acid] | < 0.1 µM | ≥ 10 µM
4 | CCOC(=O)CN([C@]1(C(=O)O)C[C@H]1c1cccc(Oc2ccccc2)c1)S(=O)(=O)c1ccc(-c2ccc(Cl)cc2)cc1 (relative stereo) [Example 1-52, (1R*,2S*)-1-[(4′-chloro-biphenyl-4-sulfonyl)-ethoxycarbonylmethyl-amino]-2-(3-phenoxy-phenyl)-cyclopropanecarboxylic acid] | < 1 µM | ≥ 10 µM
5 | CN([C@]1(C(=O)O)C[C@H]1c1cccc(Oc2ccccc2)c1)S(=O)(=O)c1ccc(-c2ccc(Cl)cc2)cc1 (relative stereo) [Example 1-53, (1R*,2S*)-1-[(4′-chloro-biphenyl-4-sulfonyl)-methyl-amino]-2-(3-phenoxy-phenyl)-cyclopropanecarboxylic acid] | < 1 µM | ≥ 10 µM
6 | O=C(O)c1ccc(CN([C@]2(C(=O)O)C[C@H]2c2ccccc2)S(=O)(=O)c2ccc(-c3ccc(Cl)cc3)cc2)o1 (relative stereo) [Example 1-55, 5-{[((1R*,2S*)-1-carboxy-2-phenyl-cyclopropyl)-(4′-chloro-biphenyl-4-sulfonyl)-amino]-methyl}-furan-2-carboxylic acid] | < 1 µM | ≥ 10 µM
7 | O=C(O)c1cccnc1CN([C@]1(C(=O)O)C[C@H]1c1ccccc1)S(=O)(=O)c1ccc(-c2ccc(Cl)cc2)cc1 (relative stereo) [Example 1-56, 2-{[((1R*,2S*)-1-carboxy-2-phenyl-cyclopropyl)-(4′-chloro-biphenyl-4-sulfonyl)-amino]-methyl}-nicotinic acid] | < 1 µM | ≥ 10 µM
8 | O=C(O)c1csc(CN([C@]2(C(=O)O)C[C@H]2c2ccccc2)S(=O)(=O)c2ccc(-c3ccc(Cl)cc3)cc2)n1 (relative stereo) [Example 1-60, 2-{[((1R*, 2S*)-1-carboxy-2-phenyl-cyclopropyl)-(4′-chloro-biphenyl-4-sulfonyl)-amino]-methyl}-thiazole-4-carboxylic acid] | < 1 µM | ≥ 10 µM
9 | O=C(CN([C@]1(C(=O)O)C[C@H]1c1ccccc1)S(=O)(=O)c1ccc(-c2ccc(Cl)cc2)cc1)Nc1nnn[nH]1 (relative stereo) [Example 1-61, (1R*,2S*)-1-{(4′-chloro-biphenyl-4-sulfonyl)-[(1H-tetrazol-5-ylcarbamoyl)-methyl]-amino}-2-phenyl-cyclopropanecarboxylic acid] | < 1 µM | ≥ 10 µM

Next, values leading:

Row | IC50 (aggrecanase-1) | IC50 (MMP-1) | SMILES
10 | < 1 µM | ≥ 10 µM | CS(=O)(=O)Nc1cccc(CN([C@]2(C(=O)O)C[C@H]2c2ccccc2)S(=O)(=O)c2ccc(-c3ccc(Cl)cc3)cc2)c1 (relative stereo) [Example 1-62, (1R*,2S*)-1-[(4′-chloro-biphenyl-4-sulfonyl)-(3-methanesulfonylamino-benzyl)-amino]-2-phenyl-cyclopropanecarboxylic acid]
11 | < 1 µM | ≥ 10 µM | O=C(O)[C@@]1(N(CCNS(=O)(=O)C(F)(F)F)S(=O)(=O)c2ccc(-c3ccc(Cl)cc3)cc2)C[C@H]1c1ccccc1 (relative stereo) [Example 1-63, (1R*,2S*)-1-[(4′-chloro-biphenyl-4-sulfonyl)-(2-trifluoromethanesulfonylamino-ethyl)-amino]-2-phenyl-cyclopropanecarboxylic acid]
12 | < 0.1 µM | ≥ 10 µM | O=C(O)CN([C@]1(C(=O)O)C[C@H]1c1cccc(O)c1)S(=O)(=O)c1ccc(-c2ccc(Cl)cc2)cc1 (relative stereo) [Example 1-66, (1R*,2S*)-1-[carboxymethyl-(4′-chloro-biphenyl-4-sulfonyl)-amino]-2-(3-hydroxy-phenyl)-cyclopropanecarboxylic acid]
13 | < 0.1 µM | ≥ 10 µM | CC(C)(C)OC(=O)N1CCC(Oc2cccc([C@H]3C[C@]3(C(=O)O)N(CC(=O)O)S(=O)(=O)c3ccc(-c4ccc(Cl)cc4)cc3)c2)CC1 (relative stereo) [Example 1-67, 4-(3-{(1R*,2S*)-2-Carboxy-2-[carboxymethyl-(4′-chloro-biphenyl-4-sulfonyl)-amino]-cyclopropyl}-phenoxy)-piperidine-1-carboxylic acid tert-butyl ester]
14 | < 1 µM | ≥ 10 µM | O=C(O)CN([C@]1(C(=O)O)C[C@H]1c1cccc(OC2CCNCC2)c1)S(=O)(=O)c1ccc(-c2ccc(Cl)cc2)cc1 (relative stereo) [Example 1-68, (1R*,2S*)-1-[carboxymethyl-(4′-chloro-biphenyl-4-sulfonyl)-amino]-2-[3-(piperidin-4-yloxy)-phenyl]-cyclopropanecarboxylic acid]
15 | < 1 µM | ≥ 10 µM | O=C(O)c1cccn1CCN([C@]1(C(=O)O)C[C@H]1c1ccccc1)S(=O)(=O)c1ccc(-c2ccc(Cl)cc2)cc1 (relative stereo) [Example 1-69, 1-{2-[((1R*,2S*)-1-carboxy-2-phenyl-cyclopropyl)-(4′-chloro-biphenyl-4-sulfonyl)-amino]-ethyl}-1H-pyrrole-2-carboxylic acid]
16 | < 1 µM | ≥ 10 µM | CC(C)(C)OC(=O)N1CCC([C@H]2C[C@]2(C(=O)O)N(Cc2cccc(C(=O)O)c2)S(=O)(=O)c2ccc(-c3ccc(Cl)cc3)cc2)CC1 (relative stereo) [Example 1-70, 4-{(1R*,2S*)-2-carboxy-2-[(3-carboxy-benzyl)-(4′-chloro-biphenyl-4-sulfonyl)-amino]-cyclopropyl}-piperidin-1-carboxylic acid tert-butyl ester]
17 | < 1 µM | ≥ 10 µM | O=C(O)[C@@]1(N(Cc2nsc(=O)[nH]2)S(=O)(=O)c2ccc(-c3ccc(Cl)cc3)cc2)C[C@H]1c1ccccc1 (relative stereo) [Example 1-71, (1R*,2S*)-1-[(4′-chloro-biphenyl-4-sulfonyl)-(5-oxo-4,5-dihydro-[1,2,4]thiadiazol-3-ylmethyl)-amino]-2-phenyl-cyclopropanecarboxylic acid]
